Tests used:
Assay type in all cases: biochemical
HDAC1 enzyme = molecular target: T1, HDAC1 enzyme (Homo sapiens, UniProt Q13547); assay: HDAC1/6 Enzyme Inhibitory Assay (HDAC-Glo I/II Assay kit), HDAC1; details: 1 μM test compound, wells without enzyme = 100% inhibition; for inhibition at 1 µM: read-out: HDAC1 inhibitory rate (%) (1 μM)
T1 construct: transducing full length HDAC1 and HDAC6 genes into Sf-9 insect cells; GST; purchased SignalChem; host or cells: Sf-9 insect cells
Method in brief: (§1)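 Steps: compound in pH 7.5 Tris buffer plus enzyme (full-length HDAC1 or HDAC6 from Sf-9, GST-purified), 60 min at room temperature; add HDAC-Glo substrate-developer; react 20 min; read luminescence. Relative activity is calculated against enzyme-free wells taken as full inhibition.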

HDAC9 enzyme = molecular target: T2, HDAC9 enzyme (Homo sapiens, UniProt Q9UKV0); assay: HDAC9 Enzyme Inhibitory Assay (HDAC-Glo class IIa); details: 1 μM test compound, wells without enzyme = 100% inhibition; for inhibition at 1 µM: read-out: HDAC9 inhibitory rate (%) (1 μM)
T2 construct: transducing full length HDAC9 gene into Sf-9 insect cells; made in house; host or cells: Sf-9 insect cells
Method in brief: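 Luminescent HDAC-Glo class IIa readout after a 20 min room-temperature reaction; relative inhibition referenced to enzyme-free wells as 100%. Test compound first preincubated 60 min with Sf-9-expressed, Ni-NTA-purified full-length HDAC9 in pH 7.5 Tris buffer containing 135 mM NaCl, 0.6 mM glutathione and 0.01% Tween-20.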

HDAC6 enzyme = molecular target: T3, HDAC6 enzyme (Homo sapiens, UniProt Q9UBN7); assay: HDAC1/6 Enzyme Inhibitory Assay (HDAC-Glo I/II Assay kit), HDAC6; details: 1 μM test compound, wells without enzyme = 100% inhibition; for inhibition at 1 µM: read-out: HDAC6 inhibitory rate (%) (1 μM)
T3 construct: transducing full length HDAC1 and HDAC6 genes into Sf-9 insect cells; GST; purchased SignalChem; host or cells: Sf-9 insect cells
T3 sequence (Q9UBN7 1-1215): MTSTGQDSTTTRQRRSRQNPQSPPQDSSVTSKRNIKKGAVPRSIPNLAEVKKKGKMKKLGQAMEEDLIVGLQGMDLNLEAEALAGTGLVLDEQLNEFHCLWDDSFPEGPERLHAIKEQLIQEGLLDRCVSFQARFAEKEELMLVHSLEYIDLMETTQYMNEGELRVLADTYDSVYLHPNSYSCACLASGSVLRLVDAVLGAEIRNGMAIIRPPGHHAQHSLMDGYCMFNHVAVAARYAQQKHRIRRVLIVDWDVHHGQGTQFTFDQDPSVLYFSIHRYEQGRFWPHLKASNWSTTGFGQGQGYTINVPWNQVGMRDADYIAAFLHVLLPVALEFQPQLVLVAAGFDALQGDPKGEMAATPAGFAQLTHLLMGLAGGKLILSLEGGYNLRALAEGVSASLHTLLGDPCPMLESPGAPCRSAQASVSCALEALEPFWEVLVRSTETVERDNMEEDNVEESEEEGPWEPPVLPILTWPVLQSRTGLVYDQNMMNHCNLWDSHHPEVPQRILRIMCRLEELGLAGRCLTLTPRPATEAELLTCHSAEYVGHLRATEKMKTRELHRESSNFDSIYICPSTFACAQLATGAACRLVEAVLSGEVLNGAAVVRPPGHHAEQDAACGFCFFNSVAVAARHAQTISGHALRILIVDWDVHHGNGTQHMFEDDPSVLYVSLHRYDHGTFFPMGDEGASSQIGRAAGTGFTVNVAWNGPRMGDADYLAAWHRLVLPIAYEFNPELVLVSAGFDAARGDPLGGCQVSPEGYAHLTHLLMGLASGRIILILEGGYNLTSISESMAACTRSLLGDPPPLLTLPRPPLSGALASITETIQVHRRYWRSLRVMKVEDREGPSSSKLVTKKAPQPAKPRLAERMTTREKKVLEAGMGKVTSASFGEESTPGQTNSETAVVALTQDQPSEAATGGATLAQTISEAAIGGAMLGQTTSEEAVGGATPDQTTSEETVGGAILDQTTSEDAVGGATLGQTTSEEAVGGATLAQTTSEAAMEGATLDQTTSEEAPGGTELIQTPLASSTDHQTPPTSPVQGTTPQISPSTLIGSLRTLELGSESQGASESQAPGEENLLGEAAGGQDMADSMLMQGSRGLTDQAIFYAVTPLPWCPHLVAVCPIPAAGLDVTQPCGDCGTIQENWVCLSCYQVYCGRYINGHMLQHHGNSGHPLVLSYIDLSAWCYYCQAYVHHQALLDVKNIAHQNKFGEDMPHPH
Method in brief: as §1

T2 sequence (Q9UKV0 whole entry, species assumed): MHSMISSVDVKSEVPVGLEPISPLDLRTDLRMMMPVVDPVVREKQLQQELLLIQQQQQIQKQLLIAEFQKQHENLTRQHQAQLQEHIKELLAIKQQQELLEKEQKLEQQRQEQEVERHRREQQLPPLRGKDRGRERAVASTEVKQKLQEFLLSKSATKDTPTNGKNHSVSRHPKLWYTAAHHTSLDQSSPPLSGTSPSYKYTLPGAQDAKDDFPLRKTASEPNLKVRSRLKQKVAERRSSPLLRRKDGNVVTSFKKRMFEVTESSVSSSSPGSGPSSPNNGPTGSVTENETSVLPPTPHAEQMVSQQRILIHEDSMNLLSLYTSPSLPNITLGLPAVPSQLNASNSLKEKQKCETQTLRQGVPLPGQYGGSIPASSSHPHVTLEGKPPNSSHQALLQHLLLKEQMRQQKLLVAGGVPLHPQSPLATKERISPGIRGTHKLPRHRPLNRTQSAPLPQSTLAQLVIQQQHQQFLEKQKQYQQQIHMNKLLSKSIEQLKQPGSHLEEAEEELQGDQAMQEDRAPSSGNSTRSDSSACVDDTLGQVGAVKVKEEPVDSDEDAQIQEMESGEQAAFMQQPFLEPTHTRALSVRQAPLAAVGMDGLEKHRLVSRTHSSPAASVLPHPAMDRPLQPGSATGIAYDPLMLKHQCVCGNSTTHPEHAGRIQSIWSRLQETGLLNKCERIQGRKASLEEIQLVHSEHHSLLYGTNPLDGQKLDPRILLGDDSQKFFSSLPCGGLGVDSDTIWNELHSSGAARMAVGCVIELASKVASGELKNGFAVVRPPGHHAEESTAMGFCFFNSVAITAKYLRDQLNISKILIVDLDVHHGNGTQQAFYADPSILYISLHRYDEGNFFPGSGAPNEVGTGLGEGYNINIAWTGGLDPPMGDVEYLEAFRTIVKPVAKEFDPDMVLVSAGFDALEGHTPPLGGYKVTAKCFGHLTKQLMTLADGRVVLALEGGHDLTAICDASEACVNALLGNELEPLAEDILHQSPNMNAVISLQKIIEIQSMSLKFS
T1 sequence (Q13547 whole entry): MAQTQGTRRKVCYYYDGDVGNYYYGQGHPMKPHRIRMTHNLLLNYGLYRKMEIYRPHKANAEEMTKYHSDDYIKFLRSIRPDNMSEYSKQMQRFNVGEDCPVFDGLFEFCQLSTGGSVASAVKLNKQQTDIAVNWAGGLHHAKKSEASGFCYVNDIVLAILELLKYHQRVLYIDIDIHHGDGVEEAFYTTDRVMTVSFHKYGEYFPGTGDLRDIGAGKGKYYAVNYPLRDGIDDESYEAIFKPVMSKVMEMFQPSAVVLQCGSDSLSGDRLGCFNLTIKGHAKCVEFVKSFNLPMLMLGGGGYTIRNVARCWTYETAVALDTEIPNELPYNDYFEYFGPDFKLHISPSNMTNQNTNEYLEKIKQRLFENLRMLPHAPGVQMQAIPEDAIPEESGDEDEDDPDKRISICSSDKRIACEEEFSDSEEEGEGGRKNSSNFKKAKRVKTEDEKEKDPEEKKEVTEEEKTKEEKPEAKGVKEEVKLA

Row | inhibition at 1 µM (HDAC1 enzyme) | inhibition at 1 µM (HDAC9 enzyme) | inhibition at 1 µM (HDAC6 enzyme) | HDAC1 inhibitory rate (%) (1 μM) (HDAC1 enzyme; 1 µM) | HDAC9 inhibitory rate (%) (1 μM) (HDAC9 enzyme; 1 µM) | HDAC6 inhibitory rate (%) (1 μM) (HDAC6 enzyme; 1 µM) | SMILES
1 | 5% | 29% | 44% |  |  |  | O=C(N[C@H]1CCCC[C@@H]1N1Cc2ccc(-c3noc(C(F)(F)F)n3)cc2C1=O)[C@H]1CCCO1 [Example 218, (2R)-N-((1S,2S)-2-(1-oxo-6-(5-(trifluoromethyl)-1,2,4-oxadiazol-3-yl)-1,3-dihydro-2H-isoindol-2-yl)cyclohexyl)tetrahydrofuran-2-carboxamide]
2 | 0% | 31% | 88% |  |  |  | O=C1CC(C(=O)N[C@@H]2CCCCC2N2Cc3ccc(-c4noc(C(F)(F)F)n4)cc3C2=O)CN1 (stereo in doubt) [Example 131, (3R)-5-oxo-N-((1R,2R)-2-(1-oxo-6-(5-(trifluoromethyl)-1,2,4-oxadiazol-3-yl)-1,3-dihydro-2H-isoindol-2-yl)cyclohexyl)pyrrolidine-3-carboxamide]
3 | 4% | 27% | 97% |  |  |  | O=C(Cc1cc(=O)[nH][nH]1)N[C@@H]1CCCC[C@H]1N1Cc2ccc(-c3noc(C(F)(F)F)n3)cc2C1=O [Example 117, 2-(5-oxo-2,5-dihydro-1H-pyrazol-3-yl)-N-((1R,2R)-2-(1-oxo-6-(5-(trifluoromethyl)-1,2,4-oxadiazol-3-yl)-1,3-dihydro-2H-isoindol-2-yl)cyclohexyl)acetamide]
4 | 58% | 88% | 101% |  |  |  | N#Cc1ccccc1C(=O)N[C@@H]1CCCC[C@H]1N1Cc2ccc(-c3noc(C(F)(F)F)n3)cc2C1=O [Example 106, 2-cyano-N-((1R,2R)-2-(1-oxo-6-(5-(trifluoromethyl)-1,2,4-oxadiazol-3-yl)-1,3-dihydro-2H-isoindol-2-yl)cyclohexyl)benzamide]
5 | 13% | 85% | 100% |  |  |  | O=C(N[C@@H]1COCC[C@H]1N1Cc2ccc(-c3noc(C(F)(F)F)n3)cc2C1=O)[C@H]1CC1(F)F [Example 150, (1R)-2,2-difluoro-N-((3S,4R)-4-(1-oxo-6-(5-(trifluoromethyl)-1,2,4-oxadiazol-3-yl)-1,3-dihydro-2H-isoindol-2-yl)tetrahydro-2H-pyran-3-yl)cyclopropanecarboxamide]
6 | 90% | 99% | 95% |  |  |  | Cc1ccc([C@@H]2CNCC[C@H]2N2Cc3ccc(-c4noc(C(F)(F)F)n4)cc3C2=O)cc1 (relative stereo) [Example 47, 2-(trans-3-(4-methylphenyl)piperidin-4-yl)-6-(5-(trifluoromethyl)-1,2,4-oxadiazol-3-yl)isoindolin-1-one]
7 | 37% | 77% | 92% |  |  |  | O=C1c2cc(-c3noc(C(F)(F)F)n3)ccc2CN1[C@@H]1CC[C@@H]1Cc1ccccc1 (relative stereo) [Example 60, 2-(cis-2-benzylcyclobutyl)-6-(5-(trifluoromethyl)-1,2,4-oxadiazol-3-yl)isoindolin-1-one]
8 | 7% | 73% | 89% |  |  |  | O=C(Cn1c(=O)oc2ccccc21)N1CCC(N2Cc3ccc(-c4noc(C(F)(F)F)n4)cc3C2=O)CC1 [Example 65, 3-(2-oxo-2-(4-(1-oxo-6-(5-(trifluoromethyl)-1,2,4-oxadiazol-3-yl)-1,3-dihydro-2H-isoindol-2-yl)piperidin-1-yl)ethyl)-1,3-benzoxazol-2(3H)-one]
9 | 28% | 43% | 42% |  |  |  | CC(C)(C)OC(=O)N[C@H]1CCC[C@@H]1N1Cc2ccc(-c3noc(C(F)(F)F)n3)cc2C1=O [Example 141, tert-butyl ((1S,2S)-2-(1-oxo-6-(5-(trifluoromethyl)-1,2,4-oxadiazol-3-yl)-1,3-dihydro-2H-isoindol-2-yl)cyclopentyl)carbamate]
10 | 13% | 97% | 76% |  |  |  | CC(=O)N1CC[C@H](N2Cc3cc(-c4noc(C(F)(F)F)n4)ccc3C2=O)[C@H](c2ccccc2)C1 (relative stereo) [Example 80, cis-2-(1-acetyl-3-phenylpiperidin-4-yl)-5-(5-(trifluoromethyl)-1,2,4-oxadiazol-3-yl)isoindolin-1-one]
11 | 93% | 99% | 100% |  |  |  | O=C1c2cc(-c3noc(C(F)(F)F)n3)ccc2CN1[C@@H]1CCNC[C@H]1c1ccc(F)c(Cl)c1 (relative stereo) [Example 54, 2-(trans-3-(3-chloro-4-fluorophenyl)piperidin-4-yl)-6-(5-(trifluoromethyl)-1,2,4-oxadiazol-3-yl)isoindolin-1-one]
12 | 5% | 52% | 101% |  |  |  | CC1(C(=O)N[C@@H]2COCC[C@H]2N2Cc3ccc(-c4noc(C(F)(F)F)n4)cc3C2=O)COC1 [Example 83, 3-methyl-N-((3S,4R)-4-(1-oxo-6-(5-(trifluoromethyl)-1,2,4-oxadiazol-3-yl)-1,3-dihydro-2H-isoindol-2-yl)tetrahydro-2H-pyran-3-yl)oxetane-3-carboxamide]
13 | 90% | 96% | 99% |  |  |  | NC(=O)N1CC[C@@H](N2Cc3ccc(-c4noc(C(F)(F)F)n4)cc3C2=O)[C@H](c2ccccc2)C1 [Example 43, (3R,4R)-4-(1-oxo-6-(5-(trifluoromethyl)-1,2,4-oxadiazol-3-yl)-1,3-dihydro-2H-isoindol-2-yl)-3-phenylpiperidine-1-carboxamide]
14 |  |  |  | 9% | 67% | 98% | CC1(C(=O)N[C@@H]2CCCC[C@H]2N2Cc3ccc(-c4noc(C(F)(F)F)n4)cc3C2=O)CC1(F)F (stereo partly drawn) [Example 171, 2,2-difluoro-1-methyl-N-((1R,2R) 2-(1-oxo-6-(5-(trifluoromethyl)-1,2,4-oxadiazol-3-yl)-1,3-dihydro-2H-isoindol-2-yl)cyclohexyl)cyclopropanecarboxamide]
15 | 37% | 94% | 93% |  |  |  | O=C(Cc1ccc(F)cc1)N1CCCC(N2Cc3ncc(-c4noc(C(F)(F)F)n4)cc3C2=O)C1 (stereo not drawn) [Example 41, 6-(1-((4-fluorophenyl)acetyl)piperidin-3-yl)-3-(5-(trifluoromethyl)-1,2,4-oxadiazol-3-yl)-6,7-dihydro-5H-pyrrolo[3,4-b]pyridin-5-one]
16 | 7% | 39% | 92% |  |  |  | O=C1c2cc(-c3noc(C(F)(F)F)n3)ccc2CN1[C@@H]1CCc2ccccc21 [Example 25, 2-((1R)-2,3-dihydro-1H-inden-1-yl)-6-(5-(trifluoromethyl)-1,2,4-oxadiazol-3-yl)isoindolin-1-one]
17 | 16% | 64% | 99% |  |  |  | O=C(N[C@@H]1CCCC[C@H]1N1Cc2ccc(-c3noc(C(F)(F)F)n3)cc2C1=O)c1ccncn1 [Example 115, N-((1R,2R)-2-(1-oxo-6-(5-(trifluoromethyl)-1,2,4-oxadiazol-3-yl)-1,3-dihydro-2H-isoindol-2-yl)cyclohexyl)pyrimidine-4-carboxamide]
